Data published in US20070293512A1, “Condensed Pyrimidine Deriviative and Xanthine Oxidase Inhibitor” (priority 2004, published 2007).
Counter-ions that a name gives are not always drawn.

What was measured:
[1] = biological target: T1, Cow milk Xanthine Oxidase (Bos taurus, UniProt P80457); assay: Xanthine oxidase inhibition, in vitro (oxidation of xanthine, absorbance at 290 nm); assay type: biochemical; settings: xanthine 250 μM, 50 mM phosphate buffer pH 7.5, 30° C., 10 minutes
T1 construct: Cow milk Xanthine Oxidase (Roche); purchased Roche; host or cells: cow milk (natural source)
Method: The xanthine oxidase inhibiting action (in vitro test) of the compound of the invention was confirmed by measuring inhibition of oxidation of xanthine by xanthine oxidase, as described in Example 50. As is clear from Tables 11 and 12, the compounds of the invention show excellent xanthine oxidase inhibiting action.
Pharmacological Experiment 1 (In Vitro Measuring Method)
1. Preparation of Test Sample
The test compound was dissolved in dimethylsulfoxide and diluted with 50 mM phosphate buffer (pH 7.5), to give a solution of a predetermined concentration.
125 μL of each of the solutions of the test compound having different concentrations was added to 1 mL of a solution of Xanthine (SIGMA, 250 μM) in the 50 mM phosphor buffer (pH 7.5). The mixture was then pre-incubated at 30° C. for 5 min. Subsequently, to the pre-incubated mixture was added 125 μL of Cow milk Xanthine Oxidase (Roche) diluted with the 50 mM phosphate buffer (pH 7.5) to 70 mU/mL, and the mixture was subjected to reaction at 30° C. for 10 minutes. Then, 1N hydrochloric acid, (200 μL) was added to the reaction mixture to terminate the reaction. Subsequently, absorbance at OD 290 nm was measured by means of a spectrophotometer (Shimadzu UV-160A)., to obtain a inhibition ratio. The measured inhibition ration was used to obtain […]
The inhibition ratio was calculated according to the following formula: Inhibition ratio (%)=[1−(B−C)/(A−C)]×100 • A: absorbance of control • B: absorbance measured on a sample containing test compound • C: absorbance of blank (Test Results)

[2] = tested on: in-plasma uric acid value; assay: In vivo test: in-plasma uric acid value-inhibition after single oral administration to mouse; settings: ICR mouse, blood one hour after administration; for In Vivo (%) TMX-67 (0.3 mg/kg): activity value relative to TMX-67 (0.3 mg/kg), single oral 0.3 mg/kg; for In Vivo (%) allopurinol (3 mg/kg): activity value relative to allopurinol (3 mg/kg), single oral 3 mg/kg
Method: The xanthine oxidase inhibiting action was. further confirmed in vivo tests by measuring the uric acid concentration in a plasma obtained from mouse into which the compound of the invention had been orally administered. See Example 51, Tables 11 and 12.
Pharmacological Experiment 2 (In Vivo Test)
The test compound suspended in 1% methylcellulose solution in an amount of 0.3 mg/kg or 3 mg/kg was administered to unfasted ICR mouse (7 W) by forced single oral administration. The blood was collected from main artery from the mouse under etherization after one hour from the administration. The plasma was separated from the collected blood in the conventional manner. The plasma was then subjected to measurement of uric acid value by the enzyme method by means of an automatic analytical apparatus (7060E), to obtain an in-plasma uric acid value-inhibition ratio in the test sample-administered group as compared with a ratio.obtained in the normal group.
Based on the obtained in-plasma uric acid inhibition ratio, activity values (%) relative to activity values obtained in the simultaneously conducted tests using TMX-67 (0.3 mg/kg) or allopurinol (3 mg/kg).

T1 sequence (P80457 whole entry): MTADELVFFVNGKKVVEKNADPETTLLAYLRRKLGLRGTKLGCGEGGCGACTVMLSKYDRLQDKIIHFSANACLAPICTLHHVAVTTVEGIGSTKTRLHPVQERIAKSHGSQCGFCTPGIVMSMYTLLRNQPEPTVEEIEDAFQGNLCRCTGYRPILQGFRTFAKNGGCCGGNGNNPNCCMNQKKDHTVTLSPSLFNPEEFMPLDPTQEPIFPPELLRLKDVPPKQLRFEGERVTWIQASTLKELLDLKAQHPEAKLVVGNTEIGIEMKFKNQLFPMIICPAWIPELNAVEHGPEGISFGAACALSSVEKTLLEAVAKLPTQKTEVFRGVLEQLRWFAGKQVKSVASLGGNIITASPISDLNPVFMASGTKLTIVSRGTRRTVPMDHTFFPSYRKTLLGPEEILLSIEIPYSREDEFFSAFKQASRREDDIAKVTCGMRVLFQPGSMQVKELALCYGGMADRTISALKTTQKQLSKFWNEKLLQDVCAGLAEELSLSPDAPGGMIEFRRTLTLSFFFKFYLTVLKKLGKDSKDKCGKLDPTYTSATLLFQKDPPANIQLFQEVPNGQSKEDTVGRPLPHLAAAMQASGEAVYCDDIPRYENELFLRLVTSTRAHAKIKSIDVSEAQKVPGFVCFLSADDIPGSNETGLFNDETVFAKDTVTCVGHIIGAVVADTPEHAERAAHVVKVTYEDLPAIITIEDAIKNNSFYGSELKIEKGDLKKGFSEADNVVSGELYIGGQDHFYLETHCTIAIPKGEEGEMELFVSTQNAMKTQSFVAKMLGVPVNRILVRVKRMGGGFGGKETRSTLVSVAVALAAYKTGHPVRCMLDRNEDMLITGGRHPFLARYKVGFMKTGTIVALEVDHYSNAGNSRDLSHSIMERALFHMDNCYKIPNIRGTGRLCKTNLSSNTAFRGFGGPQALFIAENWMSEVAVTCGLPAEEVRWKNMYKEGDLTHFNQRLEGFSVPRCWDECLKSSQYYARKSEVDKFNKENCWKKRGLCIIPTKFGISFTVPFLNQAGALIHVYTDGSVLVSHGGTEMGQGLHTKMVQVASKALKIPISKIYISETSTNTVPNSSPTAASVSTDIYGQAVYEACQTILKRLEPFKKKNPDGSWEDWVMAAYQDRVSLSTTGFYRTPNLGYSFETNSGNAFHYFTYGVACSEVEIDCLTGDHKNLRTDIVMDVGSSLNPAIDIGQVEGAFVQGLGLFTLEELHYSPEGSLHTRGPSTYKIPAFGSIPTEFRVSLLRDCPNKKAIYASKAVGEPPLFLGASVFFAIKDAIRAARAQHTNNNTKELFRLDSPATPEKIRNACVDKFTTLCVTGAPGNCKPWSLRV

Row | Compound | IC50 [1] | In Vivo (%) TMX-67 (0.3 mg/kg) [2] | further results
1 | 2-[3-Cyano-4-(2-fluorophenoxy)phenyl]-4-hydroxythiazolo[5,4-d]pyrimidine potassium salt [Example 46] | 17.7 nM | 223% | –
2 | 2-[3-Cyano-4-(4-fluorophenoxy)phenyl]-4-hydroxythiazolo[5,4-d]pyrimidine potassium salt [Example 37] | – | 107% | –
3 | 2-[4-(4-Chlorophenoxy)-3-cyanophenyl]-4-hydroxythiazolo[5,4-d]pyrimidine potassium salt [Example 24] | 18.5 nM | 28% | –
4 | 2-[4-(4-Chlorophenylthio)-3-cyanophenyl]-4-hydroxythiazolo[5,4-d]pyrimidine potassium salt [Example 10] | 22.6 nM | 84% | –
5 | O=[N+]([O-])c1cc(-c2nc3c(O)ncnc3s2)ccc1Sc1ccc(Cl)cc1 [Example 2, 2-[4-(4-Chlorophenylthio)-3-nitrophenyl]-4-hydroxythiazolo[5,4-d]pyrimidine] | 13.8 nM | – | –
6 | O=[N+]([O-])c1cc(-c2nc3c(O)ncnc3s2)ccc1Sc1ccc(Cl)cc1 [Example 3, 2-[4-(4-Chlorophenylthio)-3-nitrophenyl]-4-hydroxythiazolo[5,4-d]pyrimidine potassium salt] | 19.2 nM | – | –
7 | O=[N+]([O-])c1cc(-c2nc3c(O)ncnc3s2)ccc1Sc1ccccc1 [Example 4, 4-Hydroxy-2-(3-nitro-4-phenylthiophenyl)thiazolo[5,4-d]pyrimidine] | 18.6 nM | – | –
8 | O=[N+]([O-])c1cc(-c2nc3c(O)ncnc3s2)ccc1Oc1ccc(Cl)cc1 [Example 5, 2-[4-(4-Chlorophenoxy)-3-nitrophenyl]-4-hydroxythiazolo[5,4-d]pyrimidine] | 20.2 nM | – | melting point: 304 to 306 °C (dec.)
9 | O=[N+]([O-])c1cc(-c2nc3c(O)ncnc3o2)ccc1Sc1ccc(Cl)cc1 [Example 6, 2-[4-(4-Chlorophenylthio)-3-nitrophenyl]-4-hydroxyoxazolo[5,4-d]pyrimidine] | 30.2 nM | – | melting point: > 250 °C
10 | O=[N+]([O-])c1cc(-c2nc3c(O)ncnc3s2)ccc1Oc1ccccc1 [Example 7, 4-Hydroxy-2-(3-nitro-4-phenoxyphenyl)-thiazolo[5,4-d]pyrimidine] | 8.8 nM | – | melting point: 278 to 281 °C (dec.)
11 | O=[N+]([O-])c1cc(-c2nc3c([O-])ncnc3s2)ccc1Oc1ccccc1.[K+] [Example 8, 2-(3-Nitro-4-phenoxyphenyl)-4-hydroxythia-zolo[5,4-d]pyrimidine potassium salt] | – | 125% | –
12 | N#Cc1cc(-c2nc3c(O)ncnc3s2)ccc1Sc1ccc(Cl)cc1 [Example 9, 2-[4-(4-Chlorophenylthio)-3-cyanophenyl]-4-hydroxythiazolo[5,4-d]pyrimidine] | 14.6 nM | – | –
13 | O=[N+]([O-])c1cc(-c2nc3c(O)ncnc3s2)ccc1Oc1ccc(Cl)c2ccccc12 [Example 11, 2-[4-(4-Chloro-1-naphthoxy)-3-nitrophenyl]-4-hydroxythiazolo[5,4-d]pyrimidine] | 51.9 nM | – | –
14 | O=[N+]([O-])c1cc(-c2nc3c(O)ncnc3s2)ccc1Oc1ccc(F)cc1 [Example 12, 2-[4-(4-Fluorophenoxy)-3-nitrophenyl]-4-hydroxythiazolo[5,4-d]pyrimidine] | 9.3 nM | – | melting point: 282 to 284 °C (dec.)
15 | O=[N+]([O-])c1cc(-c2nc3c([O-])ncnc3s2)ccc1Oc1ccc(F)cc1.[K+] [Example 13, 2-[4-(4-Fluorophenoxy)-3-nitrophenyl]-4-hydroxythiazolo[5,4-d]pyrimidine potassium salt] | – | 141% | –
16 | COc1ccc(Oc2ccc(-c3nc4c(O)ncnc4s3)cc2[N+](=O)[O-])cc1 [Example 14, 2-[4-(4-Methoxyphenoxy)-3-nitrophenyl]-4-hydroxythiazolo[5,4-d]pyrimidine] | 8.5 nM | – | –
17 | O=[N+]([O-])c1cc(-c2nc3c(O)ncnc3s2)ccc1Oc1ccc(C(F)(F)F)cc1 [Example 16, 4-Hydroxy-2-[3-nitro-4-[4-(trifluoromethyl)-phenoxy]phenyl]thiazolo[5,4-d]pyrimidine] | 52.6 nM | – | –

Row | Compound | IC50 [1] | In Vivo (%) TMX-67 (0.3 mg/kg) [2] | further results
18 | O=[N+]([O-])c1cc(-c2nc3c(O)ncnc3s2)ccc1Oc1cccc(Cl)c1 [Example 17, 2-[4-(3-Chlorophenoxy)-3-nitrophenyl]-4-hydroxythiazolo[5,4-d]pyrimidine] | 16.8 nM | – | –
19 | O=[N+]([O-])c1cc(-c2nc3c(O)ncnc3s2)ccc1Oc1ccccc1F [Example 21, 2-[4-(2-Fluorophenoxy)-3-nitrophenyl]-4-hydroxythiazolo[5,4-d]pyrimidine] | 5.4 nM | – | –
20 | N#Cc1cc(-c2nc3c(O)ncnc3s2)ccc1Oc1ccc(Cl)cc1 [Example 23, 2-[4-(4-Chlorophenoxy)-3-cyanophenyl]-4-hydroxythiazolo[5,4-d]pyrimidine] | 27 nM | – | –
21 | COC(=O)c1ccc(Oc2ccc(-c3nc4c(O)ncnc4s3)cc2[N+](=O)[O-])cc1 [Example 25, 4-Hydroxy-2-[4-(4-methoxycarbonylphenoxy)-3-nitrophenyl]thiazolo[5,4-d]pyrimidine] | 18.7 nM | – | –
22 | O=C(O)c1ccc(Oc2ccc(-c3nc4c(O)ncnc4s3)cc2[N+](=O)[O-])cc1 [Example 26, 2-[4-(4-Carboxyphenoxy)-3-nitrophenyl]-4-hydroxythiazolo[5,4-d]pyrimidine] | 9.7 nM | – | –
23 | O=C([O-])c1ccc(Oc2ccc(-c3nc4c([O-])ncnc4s3)cc2[N+](=O)[O-])cc1.[K+].[K+] [Example 27, 2-[4-(4-Carboxyphenoxy)-3-nitrophenyl]-4-hydroxythiazolo[5,4-d]pyrimidine dipotassium salt] | – | – | In Vivo (%) allopurinol (3 mg/kg) [2]: 36%
24 | O=[N+]([O-])c1cc(-c2nc3c(O)ncnc3s2)ccc1Oc1ccc(Oc2ccccc2)cc1 [Example 28, 2-[3-Nitro-4-(4-phenoxyphenoxy)phenyl]-4-hydroxythiazolo[5,4-d]pyrimidine] | 67.6 nM | – | –
25 | O=[N+]([O-])c1cc(-c2nc3c(O)ncnc3s2)ccc1Nc1ccccc1 [Example 29, 2-(3-Nitro-4-phenylaminophenyl)-4-hydroxy-thiazolo[5,4-d]pyrimidine] | 24.6 nM | – | –
26 | CC(C)c1ccc(Oc2ccc(-c3nc4c(O)ncnc4s3)cc2[N+](=O)[O-])cc1 [Example 30, 4-Hydroxy-2-[4-(4-isopropylphenoxy)-3-nitro-phenyl]thiazolo[5,4-d]pyrimidine] | 119 nM | – | –
27 | O=[N+]([O-])c1cc(-c2nc3c(O)ncnc3s2)ccc1Oc1ccc(-c2ccccc2)cc1 [Example 31, 4-Hydroxy-2-[3-nitro-4-(4-phenylphenoxy)-phenyl]thiazolo[5,4-d]pyrimidine] | 36.8 nM | – | –
28 | O=[N+]([O-])c1cc(-c2nc3c(O)ncnc3s2)ccc1Oc1cccnc1.[K] [Example 33, 4-Hydroxy-2-[3-nitro-4-(3-pyridyloxy)-phenyl]thiazolo[5,4-d)pyrimidine potassium salt] | – | 48% | –
29 | O=[N+]([O-])c1cc(-c2nc3c(O)ncnc3s2)ccc1Oc1ccc(O)cc1 [Example 35, 4-Hydroxy-2-[4-(4-hydroxyphenoxy)-3-nitro-phenyl]thiazolo[5,4-d]pyrimidine] | – | 61% | –
30 | O=[N+]([O-])c1cc(-c2nc3c(O)ncnc3o2)ccc1Oc1ccc(F)cc1 [Example 39, 2-[4-(4-Fluorophenoxy)-3-nitrophenyl]-4-hydroxyoxazolo[5,4-d]pyrimidine potassium salt] | 13.5 nM | – | –
31 | COc1ncnc2sc(-c3ccc(Oc4ccc(F)cc4)c(C#N)c3)nc12 [Example 40, 2-[3-Cyano-4-(4-fluorophenoxy)phenyl]-4-methoxythiazolo[5,4-d]pyrimidine] | – | 30% | In Vivo (%) allopurinol (3 mg/kg) [2]: 107%
32 | N#Cc1cc(-c2nc3c([O-])ncnc3s2)ccc1Sc1ccc(F)cc1.[K+] [Example 43, 2-[3-Cyano-4-(4-fluorophenylthio)phenyl]-4-hydroxythiazolo[5,4-d]pyrimidine potassium salt] | – | 185% | –
33 | N#Cc1cc(-c2nc3c([O-])ncnc3s2)ccc1Oc1ccccc1.[K+] [Example 49, 2-(3-Cyano-4-phenoxyphenyl)-4-hydroxy-thiazolo[5,4-d]pyrimidine potassium salt] | 10.8 nM | 140% | –
